Consider 29 compounds from patent EP4624465A1, “COMPOUND SERVING AS DDR1 KINASE INHIBITOR, AND MEDICINE” (Nippon Shinyaku Co., Ltd., priority 2022, dated 2024).

Structures can show the parent of a compound that is named as a salt.

The experiment deals with DDR1 kinase (Homo sapiens, UniProt Q08345). Kind of experiment: Evaluation of DDR1 kinase inhibition (LANCE Ultra TR-FRET kinase assay). The format is biochemical. Set-up: purchased Carna Biosciences 08-113. The conditions noted are these: DDR1 protein 0.5 nM, LANCE Ultra ULight-poly GAT substrate, 2 hours at room temperature, duplicate; read-out: DDR-1 IC50. A general note: In TR-FRET formats the signal depends on donor and acceptor labels being close together.
Sequence of DDR1 kinase (Q08345 19-876 isoform Q08345-2 limits assumed): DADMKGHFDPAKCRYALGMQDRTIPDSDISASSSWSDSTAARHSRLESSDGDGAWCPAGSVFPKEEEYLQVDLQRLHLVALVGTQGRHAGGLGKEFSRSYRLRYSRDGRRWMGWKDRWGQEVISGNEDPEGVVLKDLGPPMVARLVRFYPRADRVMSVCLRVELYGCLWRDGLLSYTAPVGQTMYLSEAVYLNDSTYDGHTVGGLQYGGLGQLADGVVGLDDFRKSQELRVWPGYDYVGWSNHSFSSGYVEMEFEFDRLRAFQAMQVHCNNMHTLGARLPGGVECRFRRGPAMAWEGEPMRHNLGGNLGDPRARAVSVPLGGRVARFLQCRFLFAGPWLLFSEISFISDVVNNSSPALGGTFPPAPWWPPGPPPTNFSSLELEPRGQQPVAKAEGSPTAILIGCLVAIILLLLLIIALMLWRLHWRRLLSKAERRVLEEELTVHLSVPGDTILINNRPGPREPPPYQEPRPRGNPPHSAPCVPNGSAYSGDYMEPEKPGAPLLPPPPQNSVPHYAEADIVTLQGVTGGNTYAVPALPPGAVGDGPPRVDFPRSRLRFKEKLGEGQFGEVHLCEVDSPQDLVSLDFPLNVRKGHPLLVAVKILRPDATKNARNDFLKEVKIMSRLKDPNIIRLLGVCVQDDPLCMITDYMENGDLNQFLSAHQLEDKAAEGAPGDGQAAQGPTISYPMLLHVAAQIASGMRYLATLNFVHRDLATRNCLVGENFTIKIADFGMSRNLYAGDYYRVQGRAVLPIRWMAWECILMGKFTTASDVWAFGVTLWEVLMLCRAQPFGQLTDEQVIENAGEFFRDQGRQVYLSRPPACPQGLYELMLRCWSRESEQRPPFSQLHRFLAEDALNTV
For the compound `Nc1cc(C(=O)N2CC(c3nn(CC(=O)N4CCc5ccc(C6CC6)cc54)c4cc(F)cc(F)c34)C2)ccn1` [Compound E-172], the IC50 (usually the midpoint of a concentration-inhibition curve) was found to be 1.3 nM.
The value for `Cc1nc(N)sc1C(=O)N1CC(c2nn(CC(=O)N3CCO[C@@H](C(F)(F)F)C3)c3cc(F)cc(F)c23)C1` [Compound E-173, 2-(3-[1-(2-amino-4-methyl-1,3-thiazole-5-carbonyl)azetidin-3-yl]-4,6-difluoro-1H-indazol-1-yl}-1-[(2R)-2-(trifluoromethyl)morpholin-4-yl]ethan-1-one] was 70 nM; that for `Nc1cc(C(=O)N2CCC(c3nn(CC(=O)N4CCC[C@H]4C(F)(F)F)c4cccc(F)c34)CC2)c(F)cn1` [Compound E-174, 2-{3-[1-(2-amino-5-fluoropyridine-4-carbonyl)piperidin-4-yl]-4-fluoro-1H-indazol-1-yl}-1-[(2S)-2-(trifluoromethyl)pyrrolidin-1-yl]ethan-1-one] was 1.1 nM.
The value for `Nc1cc(C(=O)N2CC(c3nn(CC(=O)N4CCC[C@H]4COC(F)(F)F)c4cc(F)cc(F)c34)C2)c(F)cn1` [Compound E-175, 2-{3-[1-(2-amino-5-fluoropyridine-4-carbonyl)azetidin-3-yl]-4,6-difluoro-1H-indazol-1-yl}-1-[(2S)-2-[(trifluoromethoxy)methyl]pyrrolidin-1-yl]ethan-1-one] was 0.5 nM; that for `CC1(C)CN(C(=O)Cn2nc(C3CN(C(=O)c4cc(N)ncc4F)C3)c3c(F)cc(F)cc32)CCO1` [Compound E-176, 2-{3-[1-(2-amino-5-fluoropyridine-4-carbonyl)azetidin-3-yl)-4,6-difluoro-1H-indazol-1-yl}-1-(2,2-dimethylmorpholin-4-yl)ethan-1-one] was 8.4 nM.
The figure for `CC1(C)COCCN1C(=O)Cn1nc(C2CN(C(=O)c3cc(N)ncc3F)C2)c2c(F)cc(F)cc21` [Compound E-177, 2-{3-[1-(2-amino-5-fluoropyridine-4-carbonyl)azetidin-3-yl)-4,6-difluoro-1H-indazol-1-yl}-1-(3,3-dimethylmorpholin-4-yl)ethan-1-one] is 2.1 nM.
Turning to `Cc1cc2c(C3CN(C(=O)c4ccnc(N)c4C)C3)nn(CC(=O)N3CCO[C@@H](C(F)(F)F)C3)c2cn1` [Compound E-178, 2-{3-[1-(2-amino-3-methylpyridine-4-carbonyl)azetidin-3-yl]-5-methyl-1H-pyrazolol3,4-clpyridin-1-yl}-1-[(2R)-2-(trifluoromethyl)morpholin-4-yl]ethan-1-one dihydrochloride], the IC50 amounted to 54 nM.
The value for `COC[C@@H]1CCCN1C(=O)Cn1nc(C2CN(C(=O)c3cc(N)ncc3F)C2)c2c(F)cc(F)cc21` [Compound E-179, 2-{3-[1-(2-amino-5-fluoropyridine-4-carbonyl)azetidin-3-yl]-4,6-difluoro-1H-indazol-1-yl}-1-f(2S)-2-(methoxymethyl)pyrrolidin-1-yllethan-1-one] was 2.9 nM; that for `C[C@H]1COC[C@H](C)N1C(=O)Cn1nc(C2CN(C(=O)c3cc(N)ncc3F)C2)c2c(F)cc(F)cc21` [Compound E-182, 2-{3-[1-(2-amino-5-fluoropyridine-4-carbonyl)azetidin-3-yl]-4,6-difluoro-1H-indazol-1-yl}-1-[(3S,5S)-3,5-dimethylmorpholin-4-yl]ethan-1-one] was 12 nM; that for `Nc1nccc(C(=O)N2CC(c3nn(CC(=O)N4CCO[C@@H](C(F)(F)F)C4)c4cc(F)cc(F)c34)C2)c1F` [Compound E-184, 2-{3-[1-(2-amino-3-fluoropyridine-4-carbonyl)azetidin-3-yl]-4,6-difluoro-1H-indazol-1-yl}-1-[(2R)-2-(trifluoromethyl)morpholin-4-yl]ethan-1-one p-toluenesulfonate] was 3 nM.
The value for `CC1(C)COCCN1C(=O)Cn1nc(C2CN(C(=O)c3cc(N)ncc3F)C2)c2ccccc21` [Compound E-187, 2-{3-[1-(2-amino-5-fluoropyridine-4-carbonyl)azetidin-3-yl]-1H-indazol-1-yl}-1-(3,3-dimethylmorpholin-4-yl)ethan-1-one] was 0.6 nM; that for `CC1(C)COCCN1C(=O)Cn1nc(C2CN(C(=O)c3ccnc(N)c3F)C2)c2ccccc21` [Compound E-190, 2-{3-[1-(2-amino-3-fluoropyridine-4-carbonyl)azetidin-3-yl]-1H-indazol-1-yl}-1-(3,3-dimethylmorpholin-4-yl)ethan-1-one] was 7.5 nM; that for `Nc1cc(C(=O)N2CC(c3nn(CC(=O)N4CCO[C@@H](C(F)(F)F)C4)c4ccccc34)C2)c(F)cn1` [Compound E-192, 2-{3-[1-(2-amino-5-fluoropyridine-4-carbonyl)azetidin-3-yl]-1H-indazol-1-yl}-1-[(2R)-2-(trifluoromethyl)morpholin-4-yl]ethan-1-one] was 1.3 nM.
As for `Nc1cc(C(=O)N2CC(c3nn(CC(=O)N4CCO[C@@H](C(F)(F)F)C4)c4ccccc34)C2)ccn1` [Compound E-193, 2-{3-[1-(2-aminopyridine-4-carbonyl)azetidin-3-yl]-1H-indazol-1-yl}-1-[(2R)-2-(trifluoromethyl)morpholin-4-yl]ethan-1-one], the IC50 was 1.5 nM.
On to `CC(C)(C)NC(=O)Cn1nc(C2CN(C(=O)c3ccnc(N)c3)C2)c2ccccc21` [Compound E-198, 2-{3-[1-(2-aminopyridine-4-carbonyl)azetidin-3-yl]-1H-indazol-1-yl}-N-tert-butylacetamide], for which the IC50 amounted to 31 nM.
The figure for `CC(C)(C)NC(=O)Cn1nc(C2CN(C(=O)c3cc(N)ncc3F)C2)c2ccccc21` [Compound E-199, 2-{3-[1-(2-amino-5-fluoropyridine-4-carbonyl)azetidin-3-yl]-1H-indazol-1-yl}-N-tert-butylacetamide] is 5.2 nM; for `Cc1ccc2c(c1)c(C1CN(C(=O)c3cc(N)ncc3F)C1)nn2CC(=O)N1CCC[C@H]1C(F)(F)F` [Compound E-201, 2-{3-[1-(2-amino-5-fluoropyridine-4-carbonyl)azetidin-3-yl]-5-methyl-1H-indazol-1-yl}-1-[(28)-2-(trifluoromethyl)pyrrolidin-1-yl]ethan-1-one] it is 1.7 nM; for `Nc1cc(C(=O)N2CC(c3nn(CC(=O)N4CCC[C@H]4C(F)(F)F)c4ccc(F)cc34)C2)ccn1` [Compound E-202, 2-{3-[1-(2-aminopyridine-4-carbonyl)azetidin-3-yl]-5-fluoro-1H-indazol-1-yl}-1-[(28)-2-(trifluoromethyl)pyrrolidin-1-yl]ethan-1-one] it is 1.1 nM.
The figure for `Nc1cc(C(=O)N2CC(c3nn(CC(=O)N4CCO[C@@H](C(F)(F)F)C4)c4ccc(Cl)cc34)C2)ccn1` [Compound E-205, 2-{3-[1-(2-aminopyridine-4-carbonyl)azetidin-3-yl]-5-chloro-1H-indazol-1-yl}-1-[(2R)-2-(trifluoromethyl)morpholin-4-yl]ethan-1-one] is 1.6 nM; for `Nc1cc(C(=O)N2CC(c3nn(CC(=O)N4CCC[C@H]4C(F)(F)F)c4ccc(Cl)cc34)C2)ccn1` [Compound E-207, 2-{3-[1-(2-aminopyridine-4-carbonyl)azetidin-3-yl]-6-chloro-1H-indazol-1-yl}-1-[(28)-2-(trifluoromethyl)pyrrolidin-1-yl]ethan-1-one] it is 1.6 nM.
The value for `COCC(C)(C)NC(=O)Cn1nc(C2CN(C(=O)c3ccnc(N)c3)C2)c2ccccc21` [Compound E-208] was 170 nM; that for `CC1(NC(=O)Cn2nc(C3CN(C(=O)c4ccnc(N)c4)C3)c3ccccc32)CCOCC1` [Compound E-209, 2-{3-[1-(2-aminopyridine-4-carbonyl)azetidin-3-yl]-1H-indazol-1-yl}-N-(4-methyloxan-4-yl)acetamide] was 280 nM.
Take `Nc1cc(C(=O)N2CC(c3nn(CC(=O)N4CCC[C@H]4C(F)(F)F)c4ccccc34)C2)c(Cl)cn1` [Compound E-210, 2-{3-[1-(2-amino-5-chloropyridine-4-carbonyl)azetidin-3-yl]-1H-indazol-1-yl]-1-[(2S)-2-(trifluoromethyl)pyrrolidin-1-yl]ethan-1-one]: the IC50 is 3.5 nM.
The figure for `Nc1nccc(C(=O)N2CC(c3nn(CC(=O)N4CCO[C@@H](C(F)(F)F)C4)c4ccccc34)C2)n1` [Compound E-215, 2-{3-[1-(2-aminopyrimidine-4-carbonyl)azetidin-3-yl]-1H-indazol-1-yl}-1-[(2R)-2-(trifluoromethyl)morpholin-4-yl]ethan-1-one] is 56 nM; for `Nc1cc(C(=O)N2CC(c3nn(Cc4noc(C(F)(F)F)n4)c4cccc(F)c34)C2)ccn1` [Compound E-216, 4-[3-(4-fluoro-1-([5-(trifluoromethyl)-1,2,4-oxadiazol-3-yl]methyl)-1H-indazol-3-yl)azetidine-1-carbonyl]pyridin-2-amine] it is 13 nM; for `Nc1cc(C(=O)N2CC(c3nn(Cc4noc(C(F)(F)F)n4)c4ccccc34)C2)ccn1` [Compound E-217, 4-[3-(1-{[5-(trifluoromethyl)-1,2.4-oxadiazol-3-yl]methyl}-1 H-indazol-3-yl)azetidine-1-carbonyl]pyridin-2-amine] it is 32 nM.
For the compound `Nc1cc(C(=O)N2CC(c3nn(CC(=O)N4CCC[C@H]4CO)c4ccccc34)C2)ccn1` [Compound E-219, 2-{3-[1-(2-aminopyridine-4-carbonyl)azetidin-3-yl]-1H-indazol-1-yl]-1-[(2S)-2-(hydroxymethyl)pyrrolidin-1-yl]ethan-1-one], the half-inhibitory concentration (IC50) turned out to be 160 nM.
Take `CC(C)(C)OC(=O)Cn1nc(C2CN(C(=O)c3cc(N)ncc3F)C2)c2ccccc21` [Compound E-220, tert-butyl 2-{3-[1-(2-amino-5-fluoropyridine-4-carbony)azetidin-3-yl]-1H-indazol-1-yl}acetate]: the IC50 worked out at 3.6 nM.
The value for `CC1(C)CCCN1C(=O)Cn1nc(C2CN(C(=O)c3ccnc(N)c3)C2)c2ccccc21` [Compound E-221, 2-{3-[1-(2-aminopyridine-4-carbonyl)azetidin-3-yl]-1H-indazol-1-yl}-1-(2,2-dimethylpyrrolidin-1-yl)ethan-1-one] was 4.4 nM.
